Test results from paper PMC12598559, “Absorption characteristics and in vivo behavior of astaxanthin isomers: insights from the administration of highly purified (all-E)-, (9Z)-, and (13Z)-astaxanthin in male mice” (RSC Advances, 2025).
Read-outs that look alike come from different tables or passages of the source. Marks after values point to notes of the source that are not given here.

Legend:
[1] = male, ICR, mouse; for F NCA (absolute oral bioavailability) / AUC0–∞ / C max / T max: in vivo, 100 mg/kg; for AUC0–∞ / C max / T max / in vivo isomerization in plasma: po
Description: (§1) All animal experiments were performed in the I Tech Lab. Co., Ltd (Gifu, Japan). The study protocol was approved by the Institutional Animal Care and Use Committee of the company (approval numbers: ITL-25-MO-385 for the oral administration test and ITL-25-MV-386 for the intravenous injection test). Slc:ICR (ICR) male mice aged 7–8 weeks, supplied by Japan SLC Inc. (Shizuoka, Japan), were used in this study. The body weight of the mice at the beginning of the experiments ranged from 42.8 to 52.3 g. The mice were maintained under stable laboratory conditions (temperature: 18–28 °C; humidity: 30–80%; 12 h light/dark cycle) and provided with drinking water and a standard laboratory diet (MF; Oriental Yeast Co., Ltd, Tokyo, Japan) throughout the acclimation and testing periods. After an 11-day acclimation period, single oral administration and intravenous injection tests were conducted. For the oral administration test, 15 mice were randomly assigned to four groups: control (placebo; soybean oil administered), (all-E)-astaxanthin administered (n = 4), (9Z)-astaxanthin administered (n = 4), and (13Z)-astaxanthin administered (n = 4). Each astaxanthin isomer was administered to mice at a dose of 100 mg per kg body weight. […] Blood samples were collected before and 3, 6, 9, 12, and 24 h after the administration of the test diets. Fecal samples were collected 6–24 h after administering astaxanthin. In the intravenous injection test, 15 mice were randomly assigned to four groups: control (placebo; solvent intravenously injected), (all-E)-astaxanthin intravenously injected (n = 4), (9Z)-astaxanthin intravenously injected (n = 4), and (13Z)-astaxanthin intravenously injected (n = 4). Each astaxanthin isomer was intravenously injected into mice at a dose of 10 mg per kg body weight.[24] Blood samples were collected before and 1, 3, 6, 9, and 12 h after injecting the test samples. After these tests, the mice were sacrificed by exsanguination under anesthesia (ketamine hydrochloride and xylazine hydrochloride), and the liver was collected. Plasma samples were prepared from heparin-treated blood by centrifugation. The collected plasma, liver, and fecal samples were immediately stored at −80 °C under dark condition until just before astaxanthin extraction.
(§2) Astaxanthin isomers in the plasma, liver, and fecal samples were extracted according to previous reports.[14,15] In brief, astaxanthin isomers in plasma were extracted using hexane containing 0.01% BHT. An equal volume of methanol was added to each plasma sample to precipitate the proteins prior to hexane extraction. The extraction was performed three times using a vortex mixer for 30 s. After separating the hexane and aqueous layers by centrifugation, the hexane layer was carefully collected and removed using an evaporator. The obtained solid was dissolved in a mixture of hexane and ethyl acetate (9 : 1), filtered through a 0.22 μm PTFE membrane filter, and analyzed using HPLC. Astaxanthin isomers in liver and fecal samples were extracted using acetone containing 0.01% BHT. The samples were ultrasonicated at 80 W and 38 kHz for 30 min in ice water (∼5 °C) to facilitate extraction. The extraction residue was separated from the extraction liquid using a 0.22 μm PTFE membrane filter. The filtrate containing astaxanthin isomers was concentrated to dryness using an evaporator. Finally, the residue was dissolved in a mixture of hexane and ethyl acetate (9 : 1), filtered through a 0.22 μm PTFE membrane filter, and analyzed using HPLC. To minimize the isomerization and degradation of astaxanthin during the extraction process, heat and light exposure were carefully controlled.

[2] = mouse, iv; for AUC0–∞ / C max: in vivo, 10 mg/kg
Description: as §1, §2

SMILES | F NCA (absolute oral bioavailability) [1] | AUC0–∞ [1] [ng·h/mL] | C max [1] [ng/mL] | T max [1] | in vivo isomerization in plasma [1] | AUC0–∞ ([2]; male, ICR) [ng·h/mL] | C max ([2]; male, ICR) [ng/mL] | in vivo isomerization in plasma [2] | in vivo isomerization in plasma ([2]; male, ICR)
CC(C=CC=C(C)C=CC1=C(C)C(=O)C(O)CC1(C)C)=CC=CC=C(C)C=CC=C(C)C=CC1=C(C)C(=O)C(O)CC1(C)C (stereo not drawn) [(9Z)-Astaxanthin, (9Z)-astaxanthin] | 0.04 | 4330 ± 2070 | 1010 ± 510 | 4 h | isomerized into a variety of Z-isomers, including the all-E-, 13Z-, and 15Z-isomers, and two unidentified Z-isomers | 19400 ± 3300 | 2030 ± 160 | markedly limited isomerization | 
CC(C=CC=C(C)C=CC1=C(C)C(=O)C(O)CC1(C)C)=CC=CC=C(C)C=CC=C(C)C=CC1=C(C)C(=O)C(O)CC1(C)C (stereo not drawn) [(13Z)-Astaxanthin, (13Z)-astaxanthin] | 0.18 | 82200 ± 57400 | 7700 ± 5090 | 6 h | a minor portion of the 13Z-isomer isomerized to the all-E-isomer | 127100 ± 32400 | 5460 ± 1340 | the isomer composition remained relatively stable | 
CC(C=CC=C(C)C=CC1=C(C)C(=O)C(O)CC1(C)C)=CC=CC=C(C)C=CC=C(C)C=CC1=C(C)C(=O)C(O)CC1(C)C (stereo not drawn) [(all-E)-Astaxanthin, (all-E)-astaxanthin] | 0.12 | 1460 ± 1350 | 10 ± 10 | 3 (9) ^d h | a small portion of (all-E)-astaxanthin was converted to the 13Z- and 15Z-isomers | 310 ± 200 | 100 ± 70 |  | the proportion of the 13Z-isomer gradually increased over time
